The first assay deals with recombinant human NK3 receptor (Homo sapiens (Human), UniProt P29371). Kind of assay: biochemical. To be noted: [3H]SR142801, membranes of HEK293 cells transiently expressing recombinant human NK3 receptor; read-out: Data Ki (hNK-3 receptor affinity). In kind it is binding.
Chain of recombinant human NK3 receptor (P29371 whole entry): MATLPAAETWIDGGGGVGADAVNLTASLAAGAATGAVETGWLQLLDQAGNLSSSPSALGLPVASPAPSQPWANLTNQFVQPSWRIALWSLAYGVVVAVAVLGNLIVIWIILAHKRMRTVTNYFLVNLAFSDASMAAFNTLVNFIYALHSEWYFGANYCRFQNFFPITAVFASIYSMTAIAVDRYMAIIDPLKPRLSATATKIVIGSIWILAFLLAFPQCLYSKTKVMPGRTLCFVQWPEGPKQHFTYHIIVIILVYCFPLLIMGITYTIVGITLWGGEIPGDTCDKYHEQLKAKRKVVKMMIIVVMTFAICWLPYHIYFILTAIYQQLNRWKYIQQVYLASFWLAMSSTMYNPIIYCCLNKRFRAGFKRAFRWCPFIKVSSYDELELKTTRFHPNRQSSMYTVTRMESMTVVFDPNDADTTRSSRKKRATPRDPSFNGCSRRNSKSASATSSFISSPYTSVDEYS
For the molecule `N#Cc1ccc(N2CCC(C(=O)N3C[C@@H](N(C(=O)Oc4ccc(F)cc4)C4CC4)[C@H](c4ccc(Cl)cc4)C3)CC2)nc1` [Example 29, [(3S,4R)-4-(4-Chloro-phenyl)-1-(5′-cyano-3,4,5,6-tetrahydro-2H-[1,2′]bipyridinyl-4-carbonyl)-pyrrolidin-3-yl]-cyclopropyl-carbamic acid 4-fluoro-phenyl ester], the Ki – broadly, the equilibrium dissociation constant of an inhibitor or competing ligand from its target – turned out to be 12 nM. As for `CC(C)N(C(=O)Oc1ccc(F)cc1)[C@@H]1CN(C(=O)C2CCN(c3cnc(C#N)cn3)CC2)C[C@H]1c1ccc(Cl)cc1` [Example 27, {(3S,4R)-4-(4-Chloro-phenyl)-1-[1-(5-cyano-pyrazin-2-yl)-piperidine-4-carbonyl]-pyrrolidin-3-yl}-isopropyl-carbamic acid 4-fluoro-phenyl ester], the Ki is 47 nM.

For `CCN(C(=O)Oc1ccc(F)cc1)[C@@H]1CN(C(=O)C2CCN(c3ccc(S(C)(=O)=O)cn3)CC2)C[C@H]1c1ccc(F)cc1` [Example 37, Ethyl-[(3S,4R)-4-(4-fluoro-phenyl)-1-(5′-methanesulfonyl-3,4,5,6-tetrahydro-2H-[1,2′]bipyridinyl-4-carbonyl)-pyrrolidin-3-yl]-carbamic acid 4-fluoro-phenyl ester], the Ki turned out to be 8 nM. For `CCN(C(=O)Oc1ccc(F)cc1)[C@@H]1CN(C(=O)C2CCN(c3ncc(C#N)cn3)CC2)C[C@H]1c1ccc(Cl)cc1` [Example 13, {(3S,4R)-4-(4-Chloro-phenyl)-1-[1-(5-cyano-pyrimidin-2-yl)-piperidine-4-carbonyl]-pyrrolidin-3-yl}-ethyl-carbamic acid 4-fluoro-phenyl ester], the Ki was 8 nM.

For the molecule `CCN(C(=O)Oc1ccc(F)cc1)[C@@H]1CN(C(=O)C2CCN(c3ccc(C#N)nc3)CC2)C[C@H]1c1ccc(F)c(F)c1` [Example 51, [(3S,4R)-1-(6′-Cyano-3,4,5,6-tetrahydro-2H-[1,3′]bipyridinyl-4-carbonyl)-4-(3,4-difluoro-phenyl)-pyrrolidin-3-yl]-ethyl-carbamic acid 4-fluoro-phenyl ester], the inhibition constant Ki was 2 nM. In the case of `CCN(C(=O)Oc1ccc(F)cc1)[C@@H]1CN(C(=O)C2CCN(c3ccc(C(C)=O)cn3)CC2)C[C@H]1c1ccc(Cl)c(F)c1` [Example 59, [(3S,4R)-1-(5′-Acetyl-3,4,5,6-tetrahydro-2H-[1,2′]bipyridinyl-4-carbonyl)-4-(4-chloro-3-fluoro-phenyl)-pyrrolidin-3-yl]-ethyl-carbamic acid 4-fluoro-phenyl ester], the Ki came out at 0.5 nM. Same read-out and setting: under `CCN(C(=O)Oc1ccc(F)cc1)[C@@H]1CN(C(=O)C2CCN(C(=O)C3CC(F)(F)C3)CC2)C[C@H]1c1ccc(Cl)cc1` [Example 90, {(3S,4R)-4-(4-Chloro-phenyl)-1-[1-(3,3-difluoro-cyclobutanecarbonyl)-piperidine-4-carbonyl]-pyrrolidin-3-yl}-ethyl-carbamic acid 4-fluoro-phenyl ester] stands 2.4 nM; under `CCN(C(=O)Oc1ccc(F)cc1)[C@@H]1CN(C(=O)C2CCN(C(=O)CC#N)CC2)C[C@H]1c1ccc(Cl)cc1` [Example 93, {(3S,4R)-4-(4-Chloro-phenyl)-1-[1-(2-cyano-acetyl)-piperidine-4-carbonyl]-pyrrolidin-3-yl}-ethyl-carbamic acid 4-fluoro-phenyl ester], 7.1 nM. On the same count and under the same terms, the value for `CCN(C(=O)Oc1ccc(F)cc1)[C@@H]1CN(C(=O)C2CCN(c3cc(C#N)ccn3)CC2)C[C@H]1c1ccc(F)c(F)c1` [Example 53, [(3S,4R)-1-(4′-Cyano-3,4,5,6-tetrahydro-2H-[1,2′]bipyridinyl-4-carbonyl)-4-(3,4-difluoro-phenyl)-pyrrolidin-3-yl]-ethyl-carbamic acid 4-fluoro-phenyl ester] was 16 nM. Still for that read-out and setting: under `CCN(C(=O)Oc1ccc(F)cc1)[C@@H]1CN(C(=O)C2CCN(c3ccc(F)cn3)CC2)C[C@H]1c1ccc(F)c(F)c1` [Example 54, [(3S,4R)-4-(3,4-Difluoro-phenyl)-1-(5′-fluoro-3,4,5,6-tetrahydro-2H-[1,2′]bipyridinyl-4-carbonyl)-pyrrolidin-3-yl]-ethyl-carbamic acid 4-fluoro-phenyl ester] stands 7 nM. `CC(C)N(C(=O)Oc1ccc(F)cc1)[C@@H]1CN(C(=O)C2CCN(C(=O)C3(C)CC3)CC2)C[C@H]1c1ccc(Cl)c(Cl)c1` (racemic) [Example 2, rac-{(3S,4R)-4-(3,4-Dichloro-phenyl)-1-[1-(1-methyl-cyclopropanecarbonyl)-piperidine-4-carbonyl]-pyrrolidin-3-yl}-isopropyl-carbamic acid 4-fluoro-phenyl ester]: the Ki worked out at 46 nM. Turning to `CCN(C(=O)Oc1ccc(F)cc1)[C@@H]1CN(C(=O)C2CCN(c3ccc(C(C)(C)O)cn3)CC2)C[C@H]1c1ccc(Cl)c(F)c1` [Example 83, {(3S,4R)-4-(4-Chloro-3-fluoro-phenyl)-1-[5′-(1-hydroxy-1-methyl-ethyl)-3,4,5,6-tetrahydro-2H-[1,2′]bipyridinyl-4-carbonyl]-pyrrolidin-3-yl}-ethyl-carbamic acid 4-fluoro-phenyl ester], the inhibitory constant (Ki) was determined as 3.8 nM. Turning to `CCN(C(=O)Oc1ccc(F)cc1)[C@@H]1CN(C(=O)C2CCN(C(=O)c3ccc(F)cn3)CC2)C[C@H]1c1ccc(Cl)cc1` [Example 102, {(3S,4R)-4-(4-Chloro-phenyl)-1-[1-(5-fluoro-pyridine-2-carbonyl)-piperidine-4-carbonyl]-pyrrolidin-3-yl}-ethyl-carbamic acid 4-fluoro-phenyl ester], the inhibitory constant (Ki) was found to be 8.2 nM. Still for that read-out and setting: under `CCN(C(=O)Oc1ccc(F)cc1)[C@@H]1CN(C(=O)C2CCN(c3ccc(F)cn3)CC2)C[C@H]1c1ccc(Cl)c(F)c1` [Example 46, [(3S,4R)-4-(4-Chloro-3-fluoro-phenyl)-1-(5′-fluoro-3,4,5,6-tetrahydro-2H-[1,2′]bipyridinyl-4-carbonyl)-pyrrolidin-3-yl]-ethyl-carbamic acid 4-fluoro-phenyl ester] stands 1 nM.

Consider `CC(C)N(C(=O)Oc1ccc(F)cc1)[C@H]1CN(C(=O)C2CCN(c3ccc(C#N)cn3)CC2)C[C@@H]1c1ccc(Cl)cc1` [Example 28, [(3R,4S)-4-(4-Chloro-phenyl)-1-(5′-cyano-3,4,5,6-tetrahydro-2H-[1,2′]bipyridinyl-4-carbonyl)-pyrrolidin-3-yl]-isopropyl-carbamic acid 4-fluoro-phenyl ester], for which the Ki worked out at 50 nM. Same read-out and setting: under `CCN(C(=O)Oc1ccccc1F)[C@@H]1CN(C(=O)C2CCN(C(=O)C3(C)COC3)CC2)C[C@H]1c1ccc(Cl)cc1` [Example 84, {(3S,4R)-4-(4-Chloro-phenyl)-1-[1-(3-methyl-oxetane-3-carbonyl)-piperidine-4-carbonyl]-pyrrolidin-3-yl}-ethyl-carbamic acid 2-fluoro-phenyl ester] stands 29.8 nM. On the same count and under the same terms, under `CCN(C(=O)Oc1ccc(F)cc1)[C@@H]1CN(C(=O)C2CCN(c3ccc(F)cn3)CC2)C[C@H]1c1ccc(F)c(Cl)c1` [Example 117, [(3S,4R)-4-(3-Chloro-4-fluoro-phenyl)-1-(5′-fluoro-3,4,5,6-tetrahydro-2H-[1,2′]bipyridinyl-4-carbonyl)-pyrrolidin-3-yl]-ethyl-carbamic acid 4-fluoro-phenyl ester] stands 3.3 nM; under `CCN(C(=O)Oc1ccc(F)cc1)[C@@H]1CN(C(=O)C2CCN(C(C)=O)CC2)C[C@H]1c1ccc(Cl)cc1` [Example 82, [(3S,4R)-1-(1-Acetyl-piperidine-4-carbonyl)-4-(4-chloro-phenyl)-pyrrolidin-3-yl]-ethyl-carbamic acid 4-fluoro-phenyl ester], 8.2 nM; under `CCN(C(=O)Oc1ccc(F)cc1)[C@@H]1CN(C(=O)C2CCN(c3ccc(S(C)(=O)=O)cn3)CC2)C[C@H]1c1ccc(F)c(F)c1` [Example 64, [(3S,4R)-4-(3,4-Difluoro-phenyl)-1-(5′-methanesulfonyl-3,4,5,6-tetrahydro-2H-[1,2′]bipyridinyl-4-carbonyl)-pyrrolidin-3-yl]-ethyl-carbamic acid 4-fluoro-phenyl ester], 5 nM.

Still in this assay, the particulars now being: read-out: Data Ki (hNK-3 receptor affinity).
Take `CCN(C(=O)Oc1ccc(F)cc1)[C@@H]1CN(C(=O)C2CCN(c3ccc(F)cn3)CC2)C[C@H]1c1ccc(Cl)c(Cl)c1` [Example 112, [(3S,4R)-4-(3,4-Dichloro-phenyl)-1-(5′-fluoro-3,4,5,6-tetrahydro-2H-[1,2′]bipyridinyl-4-carbonyl)-pyrrolidin-3-yl]-ethyl-carbamic acid 4-fluoro-phenyl ester]: the Ki came to 0.8 nM.

Consider `CCN(C(=O)Oc1ccc(F)cc1)[C@@H]1CN(C(=O)C2CCN(C(=O)C3(C)CC3)CC2)C[C@H]1c1ccc(Cl)c(Cl)c1` [Example 5, {(3S,4R)-4-(3,4-Dichloro-phenyl)-1-[1-(1-methyl-cyclopropanecarbonyl)-piperidine-4-carbonyl]-pyrrolidin-3-yl}-ethyl-carbamic acid 4-fluoro-phenyl ester], for which the Ki was found to be 2 nM. As to `CCN(C(=O)Oc1ccc(F)cc1)[C@@H]1CN(C(=O)C2CCN(C(=O)C3CCC(=O)N(C(C)C)C3)CC2)C[C@H]1c1ccc(Cl)cc1` (stereo partly drawn) [Example 104, {(3S,4R)-4-(4-Chloro-phenyl)-1-[1-(1-isopropyl-6-oxo-piperidine-3-carbonyl)-piperidine-4-carbonyl]-pyrrolidin-3-yl}-ethyl-carbamic acid 4-fluoro-phenyl ester], the Ki is 17.6 nM. In the case of `CCN(C(=O)Oc1ccc(F)cc1)[C@@H]1CN(C(=O)C2CCN(C(=O)C3(C#N)CC3)CC2)C[C@H]1c1ccc(Cl)c(F)c1` [Example 72, {(3S,4R)-4-(4-Chloro-3-fluoro-phenyl)-1-[1-(1-cyano-cyclopropanecarbonyl)-piperidine-4-carbonyl]-pyrrolidin-3-yl}-ethyl-carbamic acid 4-fluoro-phenyl ester], the Ki was 2 nM. On the same count and under the same terms, under `CCN(C(=O)Oc1ccc(F)cc1)[C@@H]1CN(C(=O)C2CCN(c3ccc(C(F)(F)F)cn3)CC2)C[C@H]1c1ccc(F)c(Cl)c1` [Example 119, [(3S,4R)-4-(3-Chloro-4-fluoro-phenyl)-1-(5′-trifluoromethyl-3,4,5,6-tetrahydro-2H-[1,2′]bipyridinyl-4-carbonyl)-pyrrolidin-3-yl]-ethyl-carbamic acid 4-fluoro-phenyl ester] stands 3.7 nM.

For the origin of these results see US9346786B2, “Pyrrolidine compounds” (Hoffmann-La Roche Inc., priority 2009, dated 2016).
